Laboratory results from patent publication US10577378B2, “EIF4A-inhibiting compounds and methods related thereto” (eFFECTOR Therapeutics, Inc., priority 2015, dated 2020).

Each compound was assayed on MDA-MB-231 human breast cancer cells (assay: Cell proliferation assay (CellTiter-Glo, 72 hours treatment)). Details: Homo sapiens; MDA-MB-231 cells, 72 hours at 37° C., CellTiter-Glo; read-out: MDA-MB-231 cell proliferation assay (IC50).
Type: cell-based
Procedure, shortened: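 MDA-MB-231 cells seeded at 2,500 cells/well, treated next day with compound or DMSO vehicle for 72 h at 37 °C. Proliferation read by CellTiter-Glo; IC50 from sigmoidal non-linear regression, binned as +++ (<100 nM), ++ (100–1000 nM), + (>1000 nM).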

SMILES | IC50 [µM]
COc1cncc2c1[C@]1(O)[C@H](O)[C@H](C(=O)NCC(F)F)[C@@H](c3ccccc3)[C@]1(c1ccc(Br)cc1)O2 (racemic) [116F, Rac-(4bS,5R,6R,7S,7aR)-7a-(4-bromophenyl)-N-(2,2-difluoroethyl)-4b,5-dihydroxy-4-methoxy-7-phenyl-4b,6,7,7a-tetrahydro-5H-cyclopenta[4,5]furo[2,3-c]pyridine-6-carboxamide] | < 0.1
COc1cncc2c1[C@]1(O)[C@H](O)[C@H](S(=O)(=O)CC(F)(F)F)[C@@H](c3ccccc3)[C@]1(c1ccc(Br)cc1)O2 (racemic) [117F, Rac-(4bS,5S,6R,7S,7aR)-7a-(4-bromophenyl)-4-methoxy-7-phenyl-6-((2,2,2-trifluoroethyl)sulfonyl)-5,6,7,7a-tetrahydro-4bH-cyclopenta[4,5]furo[2,3-c]pyridine-4b,5-diol] | > 1
COc1cncc2c1[C@]1(O)[C@H](O)[C@H](S(=O)(=O)c3ccccc3)[C@@H](c3ccccc3)[C@]1(c1ccc(C#N)cc1)O2 (racemic) [118F, Rac-4-((4bS,5S,6R,7S,7aR)-4b,5-dihydroxy-4-methoxy-7-phenyl-6-(phenylsulfonyl)-4b,5,6,7-tetrahydro-7aH-cyclopenta[4,5]furo[2,3-c]pyridin-7a-yl)benzonitrile] | 0.1 to 1
COc1cncc2c1[C@]1(O)[C@H](O)[C@H](S(=O)(=O)c3ccccn3)[C@@H](c3ccccc3)[C@]1(c1ccc(C#N)cc1)O2 (racemic) [119F, Rac-4-((4bS,5S,6R,7S,7aR)-4b,5-dihydroxy-4-methoxy-7-phenyl-6-(pyridin-2-ylsulfonyl)-4b,5,6,7-tetrahydro-7aH-cyclopenta[4,5]furo[2,3-c]pyridin-7a-yl)benzonitrile] | 0.1 to 1
COc1cncc2c1[C@]1(O)[C@H](O)[C@H](C(=O)N3CC(F)(F)C3)[C@@H](c3ccccc3)[C@]1(c1ccc(Br)cc1)O2 (racemic) [121F, Rac-((4bS,5R,6R,7S,7aR)-7a-(4-bromophenyl)-4b,5-dihydroxy-4-methoxy-7-phenyl-4b,6,7,7a-tetrahydro-5H-cyclopenta[4,5]furo[2,3-c]pyridin-6-yl)(3,3-difluoroazetidin-1-yl)methanone] | 0.1 to 1
CN(Cc1ccccc1)S(=O)(=O)[C@H]1[C@@H](O)[C@@]2(O)c3ncc(Cl)cc3O[C@@]2(c2ccc(Br)cc2)[C@@H]1c1ccccc1 (racemic) [123F, rac-(5aR,6S,7R,8S,8aS)—N-benzyl-5a-(4-bromophenyl)-3-chloro-8,8a-dihydroxy-N-methyl-6-phenyl-5a,7,8,8a-tetrahydro-6H-cyclopenta[4,5]furo[3,2-b]pyridine-7-sulfonamide] | 0.1 to 1
CNS(=O)(=O)[C@H]1[C@@H](O)[C@@]2(O)c3ncc(Cl)cc3O[C@@]2(c2ccc(Br)cc2)[C@@H]1c1ccccc1 (racemic) [124F, Rac-(5aR,6S,7R,8S,8aS)-5a-(4-bromophenyl)-3-chloro-8,8a-dihydroxy-N-methyl-6-phenyl-5a,7,8,8a-tetrahydro-6H-cyclopenta[4,5]furo[3,2-b]pyridine-7-sulfonamide] | 0.1 to 1
CNS(=O)(=O)[C@H]1[C@@H](O)[C@@]2(O)c3ncc(Cl)cc3O[C@@]2(c2ccc(C#N)cc2)[C@@H]1c1ccccc1 (racemic) [125F, rac-(5aR,6S,7R,8S,8aS)-3-chloro-5a-(4-cyanophenyl)-8,8a-dihydroxy-N-methyl-6-phenyl-5a,7,8,8a-tetrahydro-6H-cyclopenta[4,5]furo[3,2-b]pyridine-7-sulfonamide] | > 1
O[C@@H]1C[C@@H](c2ccccc2)[C@]2(c3ccc(Br)cc3)Oc3cc(Cl)cnc3[C@]12O (racemic) [127F, Rac-(5aR,6S,8R,8aS)-5a-(4-bromophenyl)-3-chloro-6-phenyl-5a,6,7,8-tetrahydro-8aH-cyclopenta[4,5]furo[3,2-b]pyridine-8,8a-diol] | 0.1 to 1
N#Cc1ccc([C@@]23Oc4cc(Cl)cnc4[C@]2(O)[C@H](O)C[C@H]3c2ccccc2)cc1 (racemic) [128F, Rac-4-((5aR,6S,8R,8aS)-3-chloro-8,8a-dihydroxy-6-phenyl-6,7,8,8a-tetrahydro-5aH-cyclopenta[4,5]furo[3,2-b]pyridin-5a-yl)benzonitrile] | 0.1 to 1
